According to patent publication US7563864B2, “Prolyl endopeptidase mediated destruction of T cell epitopes in whole gluten” (Celiac Sprue Research Foundation, priority 2004, dated 2009):

What was measured:
[1] = Chymotrypsin activity assay; assay type: biochemical; settings: standard chromogenic assay; pH 7.8, 25° C.
Protocol: Chymotrypsin: 750 μL 80 mM Tris-HCl, 100 mM CaCl2, pH 7.8 and 700 μL 1.07 mM BTEE (in Water/MeOH 1:1) were mixed and incubated at room temperature for 10′. 5 μL Chymotrypsin (1 mg/ml) were added and the absorption at 256 nm was recorded for 2′, every 10″. One unit hydrolyzes 1 μmol of BTEE per min at pH 7.8 and 25° C. Extinction coefficient 0.964 cm^2/μmol at 256 nm. 1 BTEE unit=29.55 USP units.

Elastase activity assay = assay type: biochemical; settings: standard chromogenic assay; pH 8.0, 25° C.
Protocol: Elastase: 935 μL 0.1 M Tris (pH 8.0) and 65 μL of Succinyl-Ala3-p-Nitro anilide (4.4 mM in 0.1 M Tris, pH 8.0) were mixed and incubated at room temperature for 10′. 5 μL Elastase (0.2 mg/ml) were added and the absorption at 410 nm was recorded for 2′, every 10″. One unit hydrolyzes 1 μmol of Succinyl-Ala3-p-Nitro anilide per min at pH 8.0 and 25° C. Extinction coefficient 8.8 cm^2/μmol at 410 nm. […].

[2] = system: denatured hemoglobin substrate; test: Pepsin activity assay; assay type: biochemical; settings: standard chromogenic assay; 37° C.
Protocol: Activity assays—Pepsin: 300 μL 2.5% Hemoglobin and 75 μL 0.3 M HCl were mixed and incubated for 10′ at 37° C., then added to 75 μL pepsin solution (0.1 mg/ml in 0.01 M HCl, pH=2.0). The samples were incubated for 0′, 10′ and 20′ at 37° C. (3 samples), and the reaction was stopped by addition of 750 μL 5% Trichloroacetic acid (TCA), and incubated 5′ at 37° C. For the 0′ samples, the TCA was added before the hemoglobin. Samples were centrifuged for 10′ at 13400×g. The absorption was recorded at 280 nm. One unit renders TCA soluble absorption of 0.001 at 280 nm per min at 37° C. from a denatured hemoglobin substrate.

[3] = system: intestinal T cell line 421.1.4; test: T cell proliferation assay, polyclonal T cell line 421.1.4; assay type: cell-based, human; design: key: −: no response; Stimulatory index (SI; T + APC + TG2-treated peptide divided by T + APC) of 3-10; ++: SI above 10; settings: DQ2+ APC, 5 μM TG2-treated peptide, 3H thymidine incorporation
Excerpt: (§1) T cell assays—The generation of polyclonal gluten-specific T cell lines derived from ex vivo gluten challenged small intestinal biopsy specimens of adult Celiac Sprue patients have been described elsewhere. For this study 14 different intestinal T cell lines derived from 13 DQ2+celiac patients were selected based on two basic criteria; effective recognition of TG2-treated digests of gluten and significant responses to at least two different gluten epitopes (Table 2). The generation of intestinal T cell clones and the epitope specificity of these clones, except TCC 387.3, has been described elsewhere (10). The TCC 387.3 recognizes a TG2-dependent epitope, defined as γ-VI that is contained within residues 62-72 (PQQPFPQQPQQ) of recombinant γ-5 gliadin. The freeze-dried, proteolyzed gluten samples were dissolved in PBS with 2 mM CaCl2 and treated with 150 μg/ml human recombinant TG2 (14) or, in some experiments 200 μg/ml guinea pig transglutaminase (Sigma T-5398), for 2 hours at 37° C. The TG2-treated samples were incubated overnight in triplicates on U-bottomed 96 well plates with 75 000 cells per well of DQ2 homozygous, irradiated (75 Gy) EBV-transformed B-lymphoblastoid cell lines in a volume of 100 μl 15% pooled, inactivated human serum and RPMI1640. After the incubation 50 μl of freshly thawed T cells (1×10^6 cells/ml) were added to each well. The proliferation in the wells was evaluated by ^3H thymidine incorporation from 48-72 hours after the addition of the T cells.

[4] = system: intestinal T cell line 422.4.2; test: T cell proliferation assay, polyclonal T cell line 422.4.2; assay type: cell-based, human; design: key: −: no response; Stimulatory index (SI; T + APC + TG2-treated peptide divided by T + APC) of 3-10; ++: SI above 10; settings: DQ2+ APC, 5 μM TG2-treated peptide, 3H thymidine incorporation
Excerpt: as §1

[5] = system: intestinal T cell line 432.2.1; test: T cell proliferation assay, polyclonal T cell line 432.2.1; assay type: cell-based, human; design: key: −: no response; Stimulatory index (SI; T + APC + TG2-treated peptide divided by T + APC) of 3-10; ++: SI above 10; settings: DQ2+ APC, 5 μM TG2-treated peptide, 3H thymidine incorporation
Excerpt: as §1

[6] = system: intestinal T cell line 437.1.1; test: T cell proliferation assay, polyclonal T cell line 437.1.1; assay type: cell-based, human; design: key: −: no response; Stimulatory index (SI; T + APC + TG2-treated peptide divided by T + APC) of 3-10; ++: SI above 10; settings: DQ2+ APC, 5 μM TG2-treated peptide, 3H thymidine incorporation
Excerpt: as §1

[7] = system: intestinal T cell line 437.1.3; test: T cell proliferation assay, polyclonal T cell line 437.1.3; assay type: cell-based, human; design: key: −: no response; Stimulatory index (SI; T + APC + TG2-treated peptide divided by T + APC) of 3-10; ++: SI above 10; settings: DQ2+ APC, 5 μM TG2-treated peptide, 3H thymidine incorporation
Excerpt: as §1

[8] = system: intestinal T cell line 446.1.3; test: T cell proliferation assay, polyclonal T cell line 446.1.3; assay type: cell-based, human; settings: DQ2+ APC, 5 μM TG2-treated peptide, 3H thymidine incorporation
Excerpt: as §1

[9] = system: intestinal T cell line 451.1.1; test: T cell proliferation assay, polyclonal T cell line 451.1.1; assay type: cell-based, human; design: key: −: no response; Stimulatory index (SI; T + APC + TG2-treated peptide divided by T + APC) of 3-10; ++: SI above 10; settings: DQ2+ APC, 5 μM TG2-treated peptide, 3H thymidine incorporation
Excerpt: as §1

[10] = system: intestinal T cell line 461.1.4; test: T cell proliferation assay, polyclonal T cell line 461.1.4; assay type: cell-based, human; design: key: −: no response; Stimulatory index (SI; T + APC + TG2-treated peptide divided by T + APC) of 3-10; ++: SI above 10; settings: DQ2+ APC, 5 μM TG2-treated peptide, 3H thymidine incorporation
Excerpt: as §1

[11] = system: intestinal T cell line 482.1.4; test: T cell proliferation assay, polyclonal T cell line 482.1.4; assay type: cell-based, human; design: key: −: no response; Stimulatory index (SI; T + APC + TG2-treated peptide divided by T + APC) of 3-10; ++: SI above 10; settings: DQ2+ APC, 5 μM TG2-treated peptide, 3H thymidine incorporation
Excerpt: as §1

[12] = system: intestinal T cell line 488.3.1; test: T cell proliferation assay, polyclonal T cell line 488.3.1; assay type: cell-based, human; design: key: −: no response; Stimulatory index (SI; T + APC + TG2-treated peptide divided by T + APC) of 3-10; ++: SI above 10; settings: DQ2+ APC, 5 μM TG2-treated peptide, 3H thymidine incorporation
Excerpt: as §1

[13] = system: intestinal T cell line 491.1.3; test: T cell proliferation assay, polyclonal T cell line 491.1.3; assay type: cell-based, human; settings: DQ2+ APC, 5 μM TG2-treated peptide, 3H thymidine incorporation
Excerpt: as §1

[14] = system: intestinal T cell line 494.1.1; test: T cell proliferation assay, polyclonal T cell line 494.1.1; assay type: cell-based, human; design: key: −: no response; Stimulatory index (SI; T + APC + TG2-treated peptide divided by T + APC) of 3-10; ++: SI above 10; settings: DQ2+ APC, 5 μM TG2-treated peptide, 3H thymidine incorporation
Excerpt: as §1

[15] = system: intestinal T cell line 496.1.2; test: T cell proliferation assay, polyclonal T cell line 496.1.2; assay type: cell-based, human; design: key: −: no response; Stimulatory index (SI; T + APC + TG2-treated peptide divided by T + APC) of 3-10; ++: SI above 10; settings: DQ2+ APC, 5 μM TG2-treated peptide, 3H thymidine incorporation
Excerpt: as §1

[16] = system: intestinal T cell line 502.1.2; test: T cell proliferation assay, polyclonal T cell line 502.1.2; assay type: cell-based, human; design: key: −: no response; Stimulatory index (SI; T + APC + TG2-treated peptide divided by T + APC) of 3-10; ++: SI above 10; settings: DQ2+ APC, 5 μM TG2-treated peptide, 3H thymidine incorporation
Excerpt: as §1

Trypsin activity assay = assay type: biochemical; settings: standard chromogenic assay; pH 8.2, 25° C.
Protocol: Trypsin: 870 μL 46 mM Tris-HCl, 11.5 mM CaCl2, pH 8.1 and 100 μL 10 mM N-α-p-Tosyl-L-Arginine methyl ester (TAME) were mixed and incubated at room temperature for 10′. 5 μL Trypsin (1 mg/ml) were added and the absorption at 247 nm was recorded for 2′, every 10″. Unit definition: One unit hydrolyzes 1 μmol of TAME per min at pH 8.2 and 25° C. Extinction coefficient 0.18 cm^2/μmol at 247 nm. 1 TAME unit=19.2 USP units.

Question: For Chymotrypsin, which specific activity [1] is on record?
Answer: 800 USP/mg

Question: For Elastase, which specific activity (Elastase activity assay) is on record?
Answer: 5 U/mg

Question: For Pepsin, which specific activity [2] is on record?
Answer: 4000 U/mg

Question: For QQxSQPQxPQQQQxPQQPQQF [Glu-5], which “Response to TG2-treated gluten peptides (stimulatory index)” value (“Response … (stimulatory index)” for short) [3] is on record?
Answer: −

Question: And the “Response … (stimulatory index)” value [4]?
Answer: −

Question: And the “Response … (stimulatory index)” value [5]?
Answer: −

Question: And the “Response … (stimulatory index)” value [6]?
Answer: −

Question: What about the “Response … (stimulatory index)” value [7] of the same substance?
Answer: −

Question: What about the “Response … (stimulatory index)” value [8] of the same substance?
Answer: + (Stimulatory index (SI; T + APC + TG2-treated peptide divided by T + APC) of 3-10)

Question: And the “Response … (stimulatory index)” value [9]?
Answer: −

Question: What about the “Response … (stimulatory index)” value [10] of the same substance?
Answer: −

Question: What about the “Response … (stimulatory index)” value [11] of the same substance?
Answer: −

Question: What about the “Response … (stimulatory index)” value [12] of the same substance?
Answer: −

Question: And the “Response … (stimulatory index)” value [13]?
Answer: + (Stimulatory index (SI; T + APC + TG2-treated peptide divided by T + APC) of 3-10)

Question: What about the “Response … (stimulatory index)” value [14] of the same substance?
Answer: −

Question: What about the “Response … (stimulatory index)” value [15] of the same substance?
Answer: −

Question: And the “Response … (stimulatory index)” value [16]?
Answer: −

Question: With Trypsin as the substance, how does the specific activity (Trypsin activity assay) read?
Answer: 2000 USP/mg
